Test system: 323965-272-R-J2-PDC complex spheroid growth, % test/control
Experiment: Anticancer human tumor 323965-272-R-J2-PDC patient-derived pancreatic carcinoma cell line growth inhibition [Asc]
Details: for IC50: curve of first compound; for viability, T/C: stronger effect = lower value
Procedure, shortened: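 Spheroid model: tumor line + HUVEC + hMSC. Single agents and combinations; top conc. at/near clinical Cmax (10 microM if undetermined), half-log dilutions. DMSO stocks at 800-fold test concentration.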

[1] = second compound 0.00316 µM, first compound 0.0316 µM
[2] = second compound 0.00316 µM, first compound 0.1 µM
[3] = second compound 0.00316 µM, first compound 0.316 µM
[4] = second compound 0.00316 µM, first compound 1 µM
[5] = second compound 0.01 µM, first compound 0.0316 µM
[6] = second compound 0.01 µM, first compound 0.1 µM
[7] = second compound 0.01 µM, first compound 0.316 µM
[8] = second compound 0.01 µM, first compound 1 µM
[9] = second compound 0.0316 µM, first compound 0.0316 µM
[10] = second compound 0.0316 µM, first compound 0.1 µM
[11] = second compound 0.0316 µM, first compound 0.316 µM
[12] = second compound 0.0316 µM, first compound 1 µM
[13] = second compound 0.1 µM, first compound 0.0316 µM
[14] = second compound 0.1 µM, first compound 0.1 µM
[15] = second compound 0.1 µM, first compound 0.316 µM
[16] = second compound 0.1 µM, first compound 1 µM
[17] = second compound 0.316 µM, first compound 0.0316 µM
[18] = second compound 0.316 µM, first compound 0.1 µM
[19] = second compound 0.316 µM, first compound 0.316 µM
[20] = second compound 0.316 µM, first compound 1 µM
[21] = second compound 1 µM, first compound 0.0316 µM
[22] = second compound 1 µM, first compound 0.1 µM
[23] = second compound 1 µM, first compound 0.316 µM
[24] = second compound 1 µM, first compound 1 µM
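Also: compound exposure lasted 7 days starting three days after spheroid seeding.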
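For viability, T/C in this document: 100% = DMSO vehicle control wells with viability set relative to vehicle.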

What does the source list for `COc1c(OCCCN2CCOCC2)ccc2c3n(c(=NC(=O)c4cnc(N)nc4)nc12)CCN3` + CNC(C)C(=O)NC1CN(S(=O)(=O)c2cccc(S(=O)(=O)N3CCC4CCC(C(=O)NC(c5ccccc5)c5ccccc5)N4C(=O)C(NC(=O)C(C)NC)C3)c2)CCC2CCC(C(=O)NC(c3ccccc3)c3ccccc3)N2C1=O?
IC50 (second compound 0.00316 µM): 129 nM; IC50 (second compound 0.01 µM): 99.2 nM; IC50 (second compound 0.0316 µM): 92.6 nM; IC50 (second compound 0.1 µM): 78.4 nM; IC50 (second compound 0.316 µM): 102 nM; IC50 (second compound 1 µM): 70.5 nM; viability, T/C (second compound 0.00316 µM, first compound 0.00316 µM): 97.2%; viability, T/C (second compound 0.00316 µM, first compound 0.01 µM): 81.3%; viability, T/C [1]: 69.5%; viability, T/C [2]: 54.6%; viability, T/C [3]: 36.9%; viability, T/C [4]: 32.4%; viability, T/C (second compound 0.01 µM, first compound 0.00316 µM): 91.6%; viability, T/C (second compound 0.01 µM, first compound 0.01 µM): 88.9%; viability, T/C [5]: 60.1%; viability, T/C [6]: 52.8%; viability, T/C [7]: 36.8%; viability, T/C [8]: 26%; viability, T/C (second compound 0.0316 µM, first compound 0.00316 µM): 94.7%; viability, T/C (second compound 0.0316 µM, first compound 0.01 µM): 84.1%; viability, T/C [9]: 66.4%; viability, T/C [10]: 48.6%; viability, T/C [11]: 37.6%; viability, T/C [12]: 31.3%; viability, T/C (second compound 0.1 µM, first compound 0.00316 µM): 89.5%; viability, T/C (second compound 0.1 µM, first compound 0.01 µM): 80.1%; viability, T/C [13]: 62.9%; viability, T/C [14]: 49.3%; viability, T/C [15]: 29.9%; viability, T/C [16]: 29.4%; viability, T/C (second compound 0.316 µM, first compound 0.00316 µM): 84.9%; viability, T/C (second compound 0.316 µM, first compound 0.01 µM): 85.4%; viability, T/C [17]: 73.3%; viability, T/C [18]: 49.7%; viability, T/C [19]: 36.8%; viability, T/C [20]: 30.3%; viability, T/C (second compound 1 µM, first compound 0.00316 µM): 85.2%; viability, T/C (second compound 1 µM, first compound 0.01 µM): 76.3%; viability, T/C [21]: 60.5%; viability, T/C [22]: 43.4%; viability, T/C [23]: 35.8%; viability, T/C [24]: 24.3%

Which results are given for `C#Cc1c(F)ccc2cc(O)cc(-c3ncc4c(N5CC6CCC(C5)N6)nc(OCC56CCCN5CC(F)C6)nc4c3F)c12` (centres undefined) + CNC(C)C(=O)NC1CN(S(=O)(=O)c2cccc(S(=O)(=O)N3CCC4CCC(C(=O)NC(c5ccccc5)c5ccccc5)N4C(=O)C(NC(=O)C(C)NC)C3)c2)CCC2CCC(C(=O)NC(c3ccccc3)c3ccccc3)N2C1=O?
IC50 (second compound 0.00316 µM): > 10000 nM; IC50 (second compound 0.01 µM): > 10000 nM; IC50 (second compound 0.0316 µM): > 10000 nM; IC50 (second compound 0.1 µM): > 10000 nM; IC50 (second compound 0.316 µM): > 10000 nM; IC50 (second compound 1 µM): > 10000 nM; viability, T/C [1]: 109%; viability, T/C [2]: 92.7%; viability, T/C [3]: 94.1%; viability, T/C [4]: 94.9%; viability, T/C (second compound 0.00316 µM, first compound 3.16 µM): 70.2%; viability, T/C (second compound 0.00316 µM, first compound 10 µM): 61.8%; viability, T/C [5]: 117%; viability, T/C [6]: 102%; viability, T/C [7]: 96.4%; viability, T/C [8]: 87.4%; viability, T/C (second compound 0.01 µM, first compound 3.16 µM): 74.2%; viability, T/C (second compound 0.01 µM, first compound 10 µM): 63.2%; viability, T/C [9]: 127%; viability, T/C [10]: 102%; viability, T/C [11]: 106%; viability, T/C [12]: 89.7%; viability, T/C (second compound 0.0316 µM, first compound 3.16 µM): 70.4%; viability, T/C (second compound 0.0316 µM, first compound 10 µM): 58.3%; viability, T/C [13]: 101%; viability, T/C [14]: 96.6%; viability, T/C [15]: 95.4%; viability, T/C [16]: 91.2%; viability, T/C (second compound 0.1 µM, first compound 3.16 µM): 62.3%; viability, T/C (second compound 0.1 µM, first compound 10 µM): 70.2%; viability, T/C [17]: 101%; viability, T/C [18]: 95.1%; viability, T/C [19]: 96.5%; viability, T/C [20]: 82.4%; viability, T/C (second compound 0.316 µM, first compound 3.16 µM): 74%; viability, T/C (second compound 0.316 µM, first compound 10 µM): 65.4%; viability, T/C [21]: 90.9%; viability, T/C [22]: 105%; viability, T/C [23]: 92.9%; viability, T/C [24]: 91%; viability, T/C (second compound 1 µM, first compound 3.16 µM): 66.8%; viability, T/C (second compound 1 µM, first compound 10 µM): 53.2%

Source: PubChem BioAssay AID1963425 (Molecular Pharmacology Branch, DTP, NCI, 2024)
